Data on eight molecules can be found in patent US10047076B2, “Halogen-substituted compounds” (BAYER CROPSCIENCE AKTIENGESELLSCHAFT, priority 2014, dated 2018).

One data set deals with Lucilia cuprina. The data set can be described thus: Lucilia cuprina test. In kind it is in vivo. Particulars: 100 ppm, L1 larvae, after 2 days. The protocol: (§1) Solvent: dimethyl sulphoxide
About 20 L1 larvae of the Australian sheep blowfly (Lucilia cuprina) are transferred into a test vessel containing minced horsemeat and the active compound preparation of the desired concentration.
After 2 days, the kill in % is determined.

A further data set has as its system Phaedon cochleariae. The data set can be described thus: Phaedon cochleariae spray test. Particulars: larvae on Chinese cabbage leaf discs, after 7 days.
Data set [1] has as its system Tetranychus urticae. The data set can be described thus: Tetranychus urticae spray test, OP-resistant (bean leaf discs). Particulars: after 6 days. In kind it is in vivo. The protocol: (§2) Solvent: 78.0 parts by weight of acetone
(§3) After 6 days, the efficacy in % is determined.

For data set [2], the system named is Ctenocephalides felis. As to the kind of experiment: Ctenocephalides felis oral test. In kind it is in vivo. Particulars: 100 ppm in citrated cattle blood, after 2 days.
Source text: as §1
Dilution with citrated cattle blood gives the desired concentration.
About 20 unfed adult cat fleas (Ctenocephalides felis) are placed into a chamber which is closed at the top and bottom with gauze. A metal cylinder whose bottom end is closed with parafilm is placed onto the chamber. The cylinder contains the blood/active compound preparation, which can be imbibed by the fleas through the parafilm membrane.

Data set [3] concerns Ctenocephalides felis. As to the kind of experiment: Ctenocephalides felis in vitro contact test with adult cat fleas. In kind it is in vivo. Particulars: application rate 5 μg/cm^2 (500 g/ha), after 48 h, adult cat fleas dead or moribund. Here is the method: (§4) For the coating of the test tubes, 9 mg of active compound are first dissolved in 1 ml of acetone p.a. and then diluted to the desired concentration with acetone p.a. 250 μl of the solution are distributed homogeneously on the inner walls and the base of a 25 ml test tube by turning and rocking on an orbital shaker (rocking rotation at 30 rpm for 2 h). With 900 ppm active compound solution and internal surface 44.7 cm^2, given homogeneous distribution, an area-based dose of 5 μg/cm^2 is achieved.
After the solvent has evaporated off, the tubes are populated with 5-10 adult cat fleas (Ctenocephalides felis), sealed with a perforated plastic lid and incubated in a horizontal position at room temperature and ambient humidity. After 48 h, efficacy is determined. To this end, the test tubes are stood upright and the fleas are knocked to the base of the tube. Fleas which remain motionless at the base or move in an uncoordinated manner are considered to be dead or moribund.
100% efficacy means that all the fleas were dead or moribund. 0% efficacy means that no fleas were harmed.

Data set [4] concerns cattle ticks (Boophilus microplus) Parkhurst strain, SP-resistant. The data set can be described thus: Boophilus microplus dip test. Particulars: 100 ppm, engorged adult female ticks, after 7 days. In kind it is in vivo. The protocol: Test animals: cattle ticks (Boophilus microplus) Parkhurst strain, SP-resistant
as §1
10 mg of active compound are dissolved in 0.5 ml of dimethyl sulphoxide. For the purpose of producing a suitable formulation, the active compound solution is diluted with water to the concentration desired in each case.
This active compound preparation is pipetted into tubes. 8-10 engorged adult female cattle ticks (Boophilus microplus) are transferred into a further tube with holes. The tube is immersed into the active compound preparation, and all the ticks are completely wetted. After the liquid has run out, the ticks are transferred on filter discs into plastic dishes and stored in a climate-controlled room.
(§5) Efficacy is assessed after 7 days by laying of fertile eggs. Eggs which are not visibly fertile are stored in a climate-controlled cabinet until the larvae hatch after about 42 days. An efficacy of 100% means that none of the ticks has laid any fertile eggs; 0% means that all the eggs are fertile.

The next data set relates to Musca domestica. As to the kind of experiment: Musca domestica test. In kind it is in vivo. Particulars: 100 ppm, adult houseflies, after 2 days.
Source text: as §1
Vessels containing a sponge treated with sugar solution and the active compound preparation of the desired concentration are populated with 10 adult houseflies (Musca domestica).

Data set [5] is described as follows: log P determination by HPLC on reversed-phase column (C18), EEC Directive 79/831 Annex V.A8, acidic (formic acid). It is filed as physicochemical. Particulars: HPLC method a), acetonitrile/water with formic acid. Here is the method: ^1 The stated mass is the peak of the isotope pattern of the [M+H]^+ ion of the highest intensity; if the [M-H]^- ion was detected, the stated mass is identified with ^2. ^2 The stated mass is the peak of the isotope pattern of the [M-H]^- ion of the highest intensity. ^a) Note regarding the determination of the log P values and mass detection: The determination of the given log P values was carried out in accordance with EEC Directive 79/831 Annex V.A8 by HPLC (High Performance Liquid Chromatography) on a reversed-phase column (C18). […] Mass detection is effected by means of an […] system. ^b) Note regarding the determination of the retention time and mass detection: The stated retention times were determined on a reversed-phase column (C18) Shimadzu LCMS 2020; 50*3.0 Shimadzu shim-pack XR-ODS 2.2 micron; mobile phase A: water (0.05% TFA); mobile phase B: acetonitrile; linear gradient from 5% acetonitrile to 95% acetonitrile in 6.00 min, then 95% acetonitrile for a further 1.1 min; oven temperature 40° C.; flow rate: 1.0 ml/min. ^c) Note regarding the determination of the retention time and mass detection: Instrument: Waters ACQUITY SQD UPLC system; column. Waters Acquity UPLC HSS T3 1.8μ 50×1 mm; mobile phase A: 1 l of water+0.25 ml of 99% strength formic acid, mobile phase B: 1 l of acetonitrile+0.25 ml of 99% strength formic acid; gradient: 0.0 min 90% A→1.2 min 5% A→2.0 min 5% A oven: 50° C.; flow rate: 0.40 ml/min; UV detection: 208-400 nm. ^d) Note regarding the determination of the retention time and mass detection: […] The determination of the given log P values was carried out in accordance with EEC Directive 79/831 Annex V.A8 by HPLC (High Performance Liquid Chromatography) on a reversed-phase column (C18). […] Mass detection is effected by means of an […] system.

The next data set has as its system Amblyomma hebraeum. The data set can be described thus: Amblyomma hebaraeum test (AMBYHE), tick nymphs immersion. Particulars: 100 ppm, after 42 days. In kind it is in vivo. Here is the method:
as §1
To produce a suitable active compound formulation, 10 mg of active compound are mixed with 0.5 ml of dimethyl sulphoxide, and the concentrate is diluted with water to the desired concentration.
Tick nymphs (Amblyomma hebraeum) are placed into perforated plastic beakers and immersed in the desired concentration for one minute. The ticks are transferred on filter paper into a Petri dish and stored in a climate-controlled cabinet.

In the next data set the test system is Boophilus microplus. The data set can be described thus: Boophilus microplus injection test. In kind it is in vivo. Particulars: 20 μg/animal, engorged adult female ticks, after 7 days. Here is the method: as §1
1 μl of the active compound solution is injected into the abdomen of 5 engorged adult female cattle ticks (Boophilus microplus). The animals are transferred into dishes and kept in a climate-controlled room.
as §5

The test system of the next data set is Spodoptera frugiperda. As to the kind of experiment: Spodoptera frugiperda spray test. It is filed as in vivo. Particulars: caterpillars on maize leaf discs, after 7 days.
Source text: as §2

In another data set the test system is Rhipicephalus sanguineus. As to the kind of experiment: Rhipicephalus sanguineus in vitro contact test with adult brown dog ticks. In kind it is in vivo. Particulars: after 48 h, adult ticks dead or moribund. Here is the method: as §4
After the solvent has evaporated off, the tubes are populated with 5-10 adult dog ticks (Rhipicephalus sanguineus), sealed with a perforated plastic lid and incubated in a horizontal position in the dark at room temperature and ambient humidity. After 48 h, efficacy is determined. To this end, the ticks are knocked to the floor of the tube and incubated on a hotplate at 45-50° C. for not more than 5 min. Ticks which remain motionless on the floor or move in such an uncoordinated manner that they are unable to deliberately avoid the heat by climbing upwards are considered to be dead or moribund.
An efficacy of 100% means that all the ticks were dead or moribund. 0% efficacy means that none of the ticks had been harmed.

Data set [6] concerns Tetranychus urticae. The data set can be described thus: Tetranychus urticae spray test, OP-resistant (bean plants). It is filed as in vivo. Particulars: 20 ppm, after 7 days.
The subject of a further data set is Myzus persicae. The data set can be described thus: Myzus persicae spray test. In kind it is in vivo. Particulars: 100 g/ha, Chinese cabbage leaf discs, after 6 days. Here is the method: Solvent: 78 parts by weight of acetone
as §3

Where [7] appears, read: application rate 5 μg/cm^2 (500 g/ha).

On to `Cn1nc(C(F)(F)C(F)(F)F)c(C(F)(F)F)c1-c1coc(-c2ccc(Cl)c(C(=O)NC3(C#N)CC3)c2)c1` [Iac-1, 2-chloro-N-(1-cyanocyclopropyl)-5-{4-[1-methyl-3-(pentafluoroethyl)-4-(trifluoromethyl)-1H-pyrazol-5-yl]-2-furyl}benzamide], for which the “efficacy (kill in %)” value in the data set on Lucilia cuprina, in the data set with Ctenocephalides felis [2], in the data set on Musca domestica and with Amblyomma hebraeum was 100% each time. Also, the efficacy in the data set on Phaedon cochleariae (100 g/ha), with Tetranychus urticae [1] (100 g/ha), in the data set on Ctenocephalides felis [3] and with Spodoptera frugiperda (100 g/ha) was 100% throughout. For the same molecule, the “efficacy (laying of fertile eggs)” value (in [4]; with Boophilus microplus) was 100% each time. The chromatographic logP in data set [5] was found to be 4.02.

In the case of `Cn1nc(C(F)(F)C(F)(F)F)c(C(F)(F)F)c1-c1cc(-c2ccc(Cl)c(C(=O)NC3CSC3)c2)no1` [Iap-4], the “efficacy (kill in %)” value in the data set with Lucilia cuprina and in the data set on Ctenocephalides felis [2] was 100% in each case. The efficacy in the data set on Phaedon cochleariae (500 g/ha) came out at 100%; in the data set on Tetranychus urticae [1] (500 g/ha) it was 90%; with Rhipicephalus sanguineus (setting [7]), 100%; in the data set with Spodoptera frugiperda (500 g/ha), 80%. This molecule had a logP in data set [5] of 4.37. Besides, the “efficacy (laying of fertile eggs)” value in the data set on Boophilus microplus is given as 100%.

With `Cn1nc(C(F)(F)C(F)(F)F)c(C(F)(F)F)c1-c1cc(-c2ccc(Cl)c(C(=O)NCC(F)(F)F)c2)no1` [Iap-2], the “efficacy (kill in %)” value in the data set on Lucilia cuprina, with Ctenocephalides felis [2] and with Musca domestica was 100% in each case. Besides, the efficacy in the data set on Phaedon cochleariae (100 g/ha) is recorded as 100%; in the data set with Rhipicephalus sanguineus (application rate 1 μg/cm^2 (100 g/ha)), 80%; with Spodoptera frugiperda (100 g/ha), 100%. Besides, the log partition coefficient (logP) in data set [5] was found to be 4.42. For the same molecule, the “efficacy (laying of fertile eggs)” value with Boophilus microplus came out at 100%.

With `Cn1nc(C(F)(F)C(F)(F)F)c(C(F)(F)F)c1-c1cc(-c2ccc(Cl)c(C(=O)NC3CC3)c2)no1` [Iap-1, 2-chloro-N-cyclopropyl-5-{5-[1-methyl-3-(pentafluoroethyl)-4-(trifluoromethyl)-1H-pyrazol-5-yl]-1,2-oxazol-3-yl}benzamide], the “efficacy (kill in %)” value in the data set on Lucilia cuprina, in the data set with Ctenocephalides felis [2], in the data set with Musca domestica and in the data set on Amblyomma hebraeum was 100% throughout. In addition, the efficacy with Tetranychus urticae [6], in the data set with Phaedon cochleariae (100 g/ha), in the data set with Ctenocephalides felis [3], in the data set on Rhipicephalus sanguineus (setting [7]) and with Spodoptera frugiperda (100 g/ha) was 100% throughout. The “efficacy (laying of fertile eggs)” value (in [4]; in the data set with Boophilus microplus) was 100% each time. Moreover, the chromatographic logP in data set [5] worked out at 4.06.

Consider `Cn1nc(C(F)(F)C(F)(F)F)c(C(F)(F)F)c1-c1csc(-c2ccc(Cl)c(C(=O)NC3CC3)c2)c1` [Iaf-1], for which the “efficacy (kill in %)” value in the data set on Lucilia cuprina, with Ctenocephalides felis [2] and with Amblyomma hebraeum was 100% in each case. In addition, the efficacy in the data set with Phaedon cochleariae (100 g/ha) is reported as 100%; in the data set on Tetranychus urticae [1] (100 g/ha), 100%; in the data set with Ctenocephalides felis [3] it was 100%; in the data set on Myzus persicae, 90%; in the data set with Rhipicephalus sanguineus (setting [7]), 100%; with Spodoptera frugiperda (100 g/ha), 100%. The “efficacy (laying of fertile eggs)” value (in data set [4]; with Boophilus microplus) was 100% throughout. Further, the logP in [5] is reported as 4.31.

As to `Cn1nc(C(F)(F)C(F)(F)F)c(C(F)(F)F)c1-c1coc(-c2ccc(Cl)c(C(=O)NC3CC3)c2)c1` [Iac-3], the “efficacy (kill in %)” value with Lucilia cuprina, in the data set on Ctenocephalides felis [2], with Musca domestica and in the data set on Amblyomma hebraeum was 100% each time. Further, the efficacy in the data set with Phaedon cochleariae (100 g/ha), in the data set on Tetranychus urticae [1] (100 g/ha) and in the data set on Spodoptera frugiperda (100 g/ha) was 100% throughout. Further, the “efficacy (laying of fertile eggs)” value (in data set [4]; in the data set with Boophilus microplus) was 100% throughout. The logP in data set [5] stood at 4.08.

In the case of `Cn1nc(C(F)(F)C(F)(F)F)c(C(F)(F)F)c1-c1cc(-c2ccc(Cl)c(C(=O)NC3(C#N)CC3)c2)no1` [Iap-3], the “efficacy (kill in %)” value in the data set on Lucilia cuprina, in the data set on Ctenocephalides felis [2] and in the data set on Musca domestica was 100% each time. Also, the efficacy in the data set with Phaedon cochleariae (100 g/ha), in the data set on Tetranychus urticae [1] (100 g/ha), with Ctenocephalides felis [3], with Rhipicephalus sanguineus (setting [7]) and in the data set with Spodoptera frugiperda (100 g/ha) was 100% in each case. Moreover, the logP in [5] was determined as 3.96. The “efficacy (laying of fertile eggs)” value in the data set with Boophilus microplus is 100%.

`Cn1nc(C(F)(F)C(F)(F)F)c(C(F)(F)F)c1-c1nc(-c2ccc(Cl)c(C(=O)NC3(C#N)CC3)c2)no1` [Ibf-2]: the “efficacy (kill in %)” value in the data set with Lucilia cuprina, with Ctenocephalides felis [2] and with Musca domestica was 100% in each case. Further, the efficacy in the data set with Phaedon cochleariae (500 g/ha) was 100%; in the data set with Rhipicephalus sanguineus (setting [7]) it was 80%; in the data set with Spodoptera frugiperda (500 g/ha) it was 100%. In data set [5], the log partition coefficient (logP) came out at 4.14. For the same molecule, the “efficacy (laying of fertile eggs)” value in the data set on Boophilus microplus was 100%.
